From ChEMBL document CHEMBL1201862, “PubChem BioAssay data set” (2004)
Calls of active or inactive are those of the source. Cut-off read from the data, not from the text of the source, for most assays here: actives have a measured EC50 and inactives only a lower limit.

Experiments:
[1] = Luminescence Cell-Based Dose Confirmation HTS to Identify Activators of 5'UTR Stem-Loop Driven Alpha-Synuclein mRNA Translation in H4 Neuroglioblastoma Cells. [Related pubchem assays: 1829 (Project Summary), 1814 (Primary HTS)]; format: functional
[2] = Luminescence Cell-Based Dose Response HTS to Identify Activators of Luciferase Translation or Activity in H4 […] Cells. [Related pubchem assays: 1829 (Project Summary), 1814 (Primary HTS)]; format: functional
H4 = assay: Luminescence Cell-Based Dose Response HTS to Identify Activators of 5'UTR Stem-Loop Driven Prion Protein mRNA Translation in H4 Neuroglioblastoma Cells. [Related pubchem assays: 1829 (Project Summary), 1814 (Primary HTS)]; format: functional; details: Homo sapiens
[3] = inhibitors of firefly luciferase expression or activity, dose response, H4 neuroglioma cells, luminescence (AID 1990); format: functional, cell-based
[4] = Luminescence Cell-Based Dose Response HTS to Identify Inhibitors of 5'UTR Stem-Loop Driven Prion Protein mRNA Translation in H4 Neuroglioblastoma Cells. [Related pubchem assays: 1827 (Project Summary), 1813 (Primary HTS)]; format: functional
[5] = inhibitors of SNCA 5'UTR-driven reporter translation, confirmation, H4 neuroglioma cells, luminescence (AID 1988); format: functional, cell-based
[6] = target: T1, Polyadenylate-binding protein 1 (Homo sapiens, UniProt P11940); assay: PABP1 MLLE–PAM2 interaction inhibitors, dose response, miRNA deadenylation inhibitor project, biochemical, fluorescence polarization, Cy5-PAM2 peptide, secondary (AID 602260); format: functional; details: read-out: IC50_Mean
[7] = target: T1, Polyadenylate-binding protein 1; assay: PABP1 MLLE–PAM2 binding inhibitor potency, dose response, biochemical, fluorescence polarization, FITC-PAM2 peptide (AID 602259); format: functional; details: read-out: IC50_Mean
[8] = system: Streptococcus sp. 'group A'; assay: growth inhibition of control SK(-) GAS strain, dose response, counter-screen for streptokinase expression inhibitor project, luminescence, kanamycin, BacTiterGlo, confirmation (AID 1900); format: functional, organism-based
Streptokinase A = target: T2, Streptokinase A (Streptococcus pyogenes serotype M1, UniProt P10520); assay: S. pyogenes streptokinase expression inhibitors, potency, dose response, plasminogen activation absorbance, OD405 (AID 1914); format: functional, Streptococcus pyogenes M1 GAS;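 note: secreted streptokinase activity via plasminogen activation per viability signal from cell pellet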
T2 sequence (P10520 whole entry): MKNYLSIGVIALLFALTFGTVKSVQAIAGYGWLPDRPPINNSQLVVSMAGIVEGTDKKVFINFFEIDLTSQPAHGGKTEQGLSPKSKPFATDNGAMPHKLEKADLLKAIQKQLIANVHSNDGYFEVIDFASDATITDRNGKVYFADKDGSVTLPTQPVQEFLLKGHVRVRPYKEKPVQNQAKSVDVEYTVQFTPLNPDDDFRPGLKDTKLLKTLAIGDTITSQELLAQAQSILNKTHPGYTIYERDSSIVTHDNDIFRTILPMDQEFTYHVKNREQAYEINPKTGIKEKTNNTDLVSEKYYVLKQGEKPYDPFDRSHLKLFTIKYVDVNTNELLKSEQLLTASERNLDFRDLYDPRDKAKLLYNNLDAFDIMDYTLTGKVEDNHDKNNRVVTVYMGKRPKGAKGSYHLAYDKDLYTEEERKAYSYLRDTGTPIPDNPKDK

Streptococcus = assay: Group A Streptococcus viability loss, dose response, counter-screen for streptokinase expression inhibitor project, luminescence, BacTiterGlo (AID 1915); format: functional, organism-based;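 note: potency for reduction of bacterial viability or growth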
[9] = HEp-2 cell cytotoxicity, dose response, cytotoxicity control for RSV inhibitor project, HTS (AID 2410); format: functional; details: human respiratory syncytial virus
[10] = target: FAD-linked sulfhydryl oxidase ALR (Homo sapiens, UniProt P55789); assay: inhibitors of human ALR sulfhydryl oxidase, dose response, biochemical, H2O2 detection, luminescence, cherry-pick (AID 493248)
Chain of FAD-linked sulfhydryl oxidase ALR (P55789 whole entry): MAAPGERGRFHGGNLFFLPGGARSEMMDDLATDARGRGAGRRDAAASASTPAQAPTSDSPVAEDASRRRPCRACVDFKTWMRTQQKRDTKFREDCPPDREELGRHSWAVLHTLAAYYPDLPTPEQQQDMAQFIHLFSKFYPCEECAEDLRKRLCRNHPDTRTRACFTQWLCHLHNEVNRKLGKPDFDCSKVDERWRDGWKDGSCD

T1 sequence (P11940 whole entry): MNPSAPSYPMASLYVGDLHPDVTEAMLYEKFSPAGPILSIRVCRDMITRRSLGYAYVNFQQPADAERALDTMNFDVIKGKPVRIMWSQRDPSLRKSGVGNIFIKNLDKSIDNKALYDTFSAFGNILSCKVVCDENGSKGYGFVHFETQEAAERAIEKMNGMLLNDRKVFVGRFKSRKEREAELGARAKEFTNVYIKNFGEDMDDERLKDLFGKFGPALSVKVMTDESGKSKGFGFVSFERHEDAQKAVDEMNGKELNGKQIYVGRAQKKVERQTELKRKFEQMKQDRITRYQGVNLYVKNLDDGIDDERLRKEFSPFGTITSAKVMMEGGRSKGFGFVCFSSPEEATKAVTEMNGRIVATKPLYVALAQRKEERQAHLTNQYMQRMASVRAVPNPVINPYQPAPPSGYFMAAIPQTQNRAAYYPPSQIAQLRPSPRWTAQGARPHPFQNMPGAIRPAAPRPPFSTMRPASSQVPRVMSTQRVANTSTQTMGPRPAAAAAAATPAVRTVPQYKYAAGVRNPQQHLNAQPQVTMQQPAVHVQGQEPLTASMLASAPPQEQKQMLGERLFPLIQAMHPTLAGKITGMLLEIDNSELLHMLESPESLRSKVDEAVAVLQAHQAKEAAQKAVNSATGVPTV

Compound: COc1cccc(C2C(C#N)=C(N)OC(C(C)(C)C)=C2C#N)c1 (stereo unspecified)
- EC50 [1]: > 120 µM (not active)
- EC50 [2]: > 120 µM (not active)
- EC50 (H4): > 120 µM (not active)

Compound: O=C(O)CSc1nnc(NC(=O)c2ccc3c(c2)OCO3)s1
- EC50 [3]: 13 µM (active)
- EC50 [4]: 16.2 µM (active)
- EC50 [5]: 62.2 µM (active)

Compound: CCOc1ccc(N/C(S)=N/CCCn2ccnc2)cc1
- EC50 [1]: > 120 µM (not active)
- EC50 [2]: > 120 µM (not active)
- EC50 (H4): > 120 µM (not active)

Compound: COc1cccc(C2Nc3ccc4ccccc4c3C3=C2C(=O)CCC3)c1O (stereo unspecified)
- EC50 [3]: 10 µM (active)
- EC50 [4]: 32.1 µM (active)
- EC50 [5]: 11.7 µM (active)

Compound: CCOc1ccc2[nH]c(SCC(=O)OC)c([N+](=O)[O-])c2c1
- IC50 [6]: > 66 µM (inactive)
- IC50 [7]: 41 µM (inactive)

Compound: CC(C)n1cnc2c(NCc3ccccc3)nc(NCc3ccccc3)nc21
- EC50 [8]: 5.26 µM (active)
- EC50 (Streptokinase A): > 150 µM (not active)
- EC50 (Streptococcus): > 150 µM (not active)

Compound: O=C(Nc1ccc2nn(-c3ccc(F)cc3)nc2c1)c1cccnc1
- CC50 [9]: > 50 µM (active)

Compound: CCOC(=O)C1=C(CSc2nc(-c3ccccc3)ccc2C#N)OC(N)=C(C#N)C1c1ccc(OC)cc1 (stereo unspecified)
- EC50 [1]: 12.3 µM (active)
- EC50 [2]: 16.8 µM (active)
- EC50 (H4): 13.3 µM (active)

Compound: O=C(NN=C(S)Nc1ccc(Cl)c(Cl)c1)c1cccc([N+](=O)[O-])c1
- CC50 [9]: 7.46 µM (active)

Compound: Cc1ccc(-n2nc3c(n2)/C(=N/O)CC/C3=N\O)cc1
- EC50 [2]: 1.05 µM (active)

Compound: Cc1ccc(-c2csc(NCCc3nc4cc(Cl)c(Cl)cc4n3CCOCCO)n2)cc1
- CC50 [9]: 9.53 µM (active)

Compound: Cc1nc2c(cc(Oc3ccc(S(=O)(=O)N4CCOCC4)cn3)c3ccsc32)s1
- EC50 [1]: 10.2 µM (active)
- EC50 [2]: 15.5 µM (active)
- EC50 (H4): > 120 µM (not active)

Compound: O=C(O)CCn1cc(C=C2C(=O)NC(=O)NC2=O)c(-c2cc3ccccc3oc2=O)n1
- AC50 [10]: 0.109 µM (active)

Compound: COc1ccc(C(=O)n2c(N)nc3ccccc32)cc1OC
- EC50 [2]: 0.429 µM (active)

Compound: CN1CCN(C(=S)c2ccc(-c3cccc(Cl)c3Cl)o2)CC1
- CC50 [9]: 20.7 µM (active)

Compound: CC(C)S(=O)(=O)c1csc(NC(=O)Nc2cc(Cl)ccc2Cl)c1Cl
- EC50 [8]: 1.3 µM (active)
- EC50 (Streptokinase A): 7.69 µM (active)
- EC50 (Streptococcus): 8.4 µM (active)

Compound: COc1ccc(CNc2ncc(-c3cccc([N+](=O)[O-])c3)n2C)c(OC)c1OC
- AC50 [10]: 0.035 µM (active)

Compound: Cc1cc(C(=O)CC#N)c(C)n1-c1c(C)n(C)n(-c2ccccc2)c1=O
- EC50 [3]: > 120 µM (not active)
- EC50 [4]: > 120 µM (not active)
- EC50 [5]: > 120 µM (not active)

Compound: CN(C(=O)CSc1nncc2ccccc12)C1CCCCC1
- EC50 [1]: 10.5 µM (active)
- EC50 [2]: 14.1 µM (active)
- EC50 (H4): 13.1 µM (active)

Compound: CN(C)/C=N/c1ncnc2c1cnn2-c1ccc(C(F)(F)F)cn1
- EC50 [2]: > 120 µM (not active)
- EC50 (H4): > 120 µM (not active)

Compound: CC1CCCCN1S(=O)(=O)c1ccc(NC(=O)c2cccs2)cc1 (stereo unspecified)
- CC50 [9]: 25.1 µM (active)

Compound: Cc1ccc(Nc2nnc(SCC(=O)c3ccc(Br)s3)s2)c(C)c1
- CC50 [9]: 24.4 µM (active)

Compound: Cc1[nH]c2ccccc2c1CCNS(=O)(=O)c1ccc(S(N)(=O)=O)cc1
- AC50 [10]: 2.77 µM (active)

Compound: COc1cc(/C=C/c2ccc(O)cc2)cc(OC)c1 [PTEROSTILBENE]
- AC50 [10]: 0.778 µM (active)
